Assay results taken from article PMC6669322, “Small Molecule Binding to Alzheimer Risk Factor CD33 Promotes Aβ Phagocytosis” (iScience, 2019).

How the values were obtained:
CD33 = system: CD33; design: method as in Rillahan et al., 2014; conditions: estimated, flow cytometry assay; ref Rillahan et al., 2014; cited from earlier work
CD33 S131A = target: T1, CD33 S131A (Homo sapiens, UniProt P20138, S131A); assay: SNAP-tag homogeneous time-resolved fluorescence binding assay, CD33 S131A; conditions: S131 mutated to alanine, in words
T1 construct: human CD33 ORF (NM_001772.3), lacking its signal peptide; expressed in transfected cells; host or cells: HEK293T, transient, pT8-SNAP vector
Procedure: We then used our structural data to design mutations of key residues interacting with P22 to assess which interactions were the most important for binding affinity. The residues were mutated into alanine, and the effect of these mutations on P22 binding affinity was assessed using a SNAP-tag homogeneous time-resolved fluorescence binding assay (see Transparent Methods and Figures 3E–3G). The R119A mutation, which destroys the salt bridge between P22 and CD33, was one of the most detrimental to binding (>30-fold loss) (Figure 2C and Table S4). […]
HEK293T cells were cultured in DMEM (ThermoFisher Scientific # 11965092) containing 10% FBS (Hyclone # SH30070.03) and 1% Penicillin-Streptomycin (ThermoFisher Scientific # 15140122) and transfected using Fugene HD (Promega # E2312) in 10 cm plates. […] The cells were counted, centrifuged and resuspended in PBS at a concentration of 1,000 cells/μL and 10 μL were plated into each well. […] Non-specific binding was assessed by competition with 100 μM of the non-labeled P22, as well as in control (Snap-tagged dopamine D2R receptor)-transfected cells.
Fluorescence was read with a PHERAstar plate reader using an excitation of 337 nm and emissions of 620 and 665 nm. […]

T1 sequence (P20138 18-364 S131A): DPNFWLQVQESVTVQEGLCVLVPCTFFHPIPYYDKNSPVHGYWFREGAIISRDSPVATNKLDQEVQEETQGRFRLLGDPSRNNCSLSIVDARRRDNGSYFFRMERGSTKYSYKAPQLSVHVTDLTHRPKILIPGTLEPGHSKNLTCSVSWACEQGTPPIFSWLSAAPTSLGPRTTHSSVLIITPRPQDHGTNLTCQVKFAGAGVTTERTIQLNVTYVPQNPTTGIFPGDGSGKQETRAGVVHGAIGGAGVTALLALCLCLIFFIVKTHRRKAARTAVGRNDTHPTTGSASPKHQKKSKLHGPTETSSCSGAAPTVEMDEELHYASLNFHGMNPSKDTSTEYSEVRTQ

- impact of mutation on P22 binding affinity (CD33 S131A): little to no significant impact
Compound: Cc1cc(C(=O)NC[C@@H](O)[C@@H](O)[C@@H]2O[C@@](OC[C@H]3O[C@@H](O[C@H]4[C@H](O)[C@@H](O)[C@H](OCCN)O[C@@H]4CO)[C@H](O)[C@@H](O)[C@H]3O)(C(=O)O)C[C@H](O)[C@H]2NC(=O)Cn2cc(C3CCCCC3)nn2)cc(C)c1O [P22, β-D-Glucopyranoside, 2-aminoethyl O-[N-[2-(4-cyclohexyl-1H-1,2,3-triazol-1-yl)acetyl]-9-deoxy-9-[(4-hydroxy-3,5-dimethylbenzoyl)amino]-α-neuraminosyl] (2→6)-O-β-D-galactopyranosyl-(1→4)-]
- IC50 (CD33): 11 µM
